Test results reported in patent US6893846B2, “Primers for use in detecting beta-lactamases” (priority 1998, dated 2005).
Read-outs that look alike come from different tables or passages of the source.

What was measured:
[1] = system: E. coli C600 transconjugant; conditions: disk diffusion, Tc = transconjugate E. coli C600
[2] = system: K. pneumoniae 225; experiment: MicroScan Walkaway microdilution susceptibility test; type: cell-based, Klebsiella pneumoniae; conditions: K. pneumoniae 225
[3] = system: E. coli C600N transconjugants; experiment: Susceptibility of transconjugants; type: cell-based, Escherichia coli; conditions: E. coli C600N transconjugants of E. aerogenes 187, 200, 220, 184
Method: (§1) Antibiotic susceptibilities were determined by standard disk-diffusion (NCCLS Standard M2-A6) and agar-dilution (NCCLS Standard M7-A4) procedures. Disks were obtained from Becton Dickinson Microbiology Systems (Cockeysville, Md.). Disk-diffusion susceptibilities to the following antibiotics were determined, ampicillin; amoxicillin clavulanic acid; aztreonam; cefazolin; cefoxitin; cefuroxime; cefotaxime; ceftriaxone; ceftazidime; cefepime; imipenem; gentamicin; trimethoprim/sulfamethoxazole and ciprofloxacin. […] The following quality control strains were run simultaneously with the test organisms Escherichia coli ATCC 25922, Pseudomonas aeruginosa ATCC 27853, and E. coli ATCC 35218. Throughout this study, results were interpreted using NCCLS criteria for disk diffusion (NCCLS M2-A6) and broth dilution (NCCLS M7-A4).
[…]. The filter paper mating technique with overnight incubation at 37° C. were performed as described previously (Philippon et al., Antimicrob. Agents Chemother., 33:1131-1136 (1989)). Transconjugants were selected on LB (Luria Bertani) agar [Difco (Detroit, Mich.)] plates containing 12 μg per ml nalidixic acid and 20 μg per ml ampicillin.

[4] = system: E. aerogenes; experiment: Disk diffusion susceptibility test; type: cell-based, Enterobacter aerogenes; conditions: all the E. aerogenes strains
Method: as §1

[5] = system: K. pneumoniae 225; experiment: NCCLS disk diffusion assay; type: cell-based, Klebsiella pneumoniae; conditions: disk diffusion, Kleb 225
[6] = system: E. coli HB101 transformant (17 kb plasmid); conditions: disk diffusion, Tr (17 kb) = transformant E. coli HB101
[7] = system: beta-lactamases in sonic extracts of E. aerogenes; experiment: Isoelectric focusing overlay: cefotaxime hydrolysis, inhibitors, induction
[8] = biological target: beta-lactamases in sonic extracts of E. coli (Escherichia coli, UniProt P62593); experiment: Isoelectric focusing overlay: cefotaxime hydrolysis and inhibitors
[9] = system: beta-lactamases in sonic extracts of E. coli; experiment: as above
[10] = biological target: beta-lactamases in sonic extracts of K. pneumoniae (Klebsiella pneumoniae, UniProt P0AD64, E235K/G234S); conditions: Kpn2, beta-lactamase pI 8.2 (SHV-5)
[11] = system: beta-lactamases in sonic extracts of K. pneumoniae
[12] = biological target: beta-lactamases in sonic extracts of K. pneumoniae (Klebsiella pneumoniae, UniProt P0AD64); conditions: Kpn1, beta-lactamase pI 7.6 (SHV-1)
[13] = biological target: beta-lactamases in sonic extracts of K. pneumoniae (Escherichia coli, UniProt P62593)
[14] = system: K. pneumoniae 225; experiment: NCCLS microdilution susceptibility test; type: cell-based, Klebsiella pneumoniae; conditions: Klebsiella pneumoniae, 225
[15] = system: P. mirabilis; experiment: Agar dilution MIC, South African isolates; type: cell-based, Proteus mirabilis; conditions: 4 strains, tzp with tazobactam 4 μg/ml
From the text: During a period of three months in 1993, […] strains of Klebsiella pneumoniae (13 blood, 5 burn, 7 wound, 11 tracheal isolates), 4 strains of Proteus mirabilis (all wound isolates) and 4 strains of Escherichia coli (1 blood, 1 burn, 2 wound isolates) were collected from patients at the following medical centers in South Africa: Tygerberg Hospital near Cape Town, King Edward VIII Hospital in Durban, Chris Hani Baragwanath Hospital in Soweto and Pretoria Academic Hospital in Pretoria. The strains were provided in response to a request for all strains of Enterobacteriaceae, lacking inducible beta-lactamases, that were intermediate or resistant to cefotaxime or ceftazidime. […] Therefore accurate prevalence data were not obtained.
Antibiotic susceptibility was determined by standard disk diffusion (NCCLS Standard M2-T4, 1994) and agar dilution (NCCLS Standard M7-T2, 1994) procedures. Standard powders of antimicrobial agents were kindly provided by the following companies: piperacillin and tazobactam (Lederle Laboratories, Wayne, N.J.); cefoxitin and imipenem, (Merck, Rathway, N.J.); cefotaxime, (Hoechst-Roussel Pharmaceuticals Inc., Somerville, N.J.); ceftazidime, (Glaxo Group Research Ltd., Greenford, England); aztreonam and cefepime, (Bristol-Myers Squibb, Princeton, N.J.). Disks for agar diffusion were obtained from Becton Dickinson Microbiology Systems (Cockeysville, Md.). For quality control purposes, the following quality control strains were run simultaneously with the test organisms E. coli ATCC 25922, Pseudomonas aeruginosa ATCC 27853, E. coli ATCC 35218, and Staphylococcus aureus ATCC 29213. Throughout this study, results were interpreted using NCCLS criteria for disk diffusion (NCCLS Standard M2-T4, 1994) and broth dilution (NCCLS Standard M7-T2, 1994).

[16] = system: E. coli; experiment: Agar dilution MIC, South African isolates; type: cell-based, Escherichia coli; conditions: tzp with tazobactam 4 μg/ml
From the text: (§2) The strains were provided in response to a request for all strains of Enterobacteriaceae, lacking inducible beta-lactamases, that were intermediate or resistant to cefotaxime or ceftazidime. […]

[17] = system: K. pneumoniae 225; experiment: Three-dimensional test (enzymatic inactivation of antibiotics); conditions: beta-lactamase-mediated hydrolysis by K. pneumoniae 225, lawn E. coli ATCC 25922
[18] = biological target: single beta-lactamase in E. coli cell extracts (Escherichia coli, UniProt P62593, E102K/R162S); experiment: Spectrophotometric hydrolysis assay on crude beta-lactamase extracts; conditions: E. coli Pit 64 extract, beta-lactamase pI 5.6; 100 μM substrate
[19] = biological target: single beta-lactamase in K. pneumoniae cell extracts (Klebsiella pneumoniae, UniProt P0AD64, E235K/G234S); experiment: as above; conditions: K. pneumoniae Pit 82 extract, beta-lactamase pI 8.2; 100 μM substrate
[20] = biological target: single beta-lactamase in K. pneumoniae cell extracts (Escherichia coli, UniProt P62593, E102K/R162S); experiment: as above; conditions: K. pneumoniae Pit 16 extract, beta-lactamase pI 5.6; 100 μM substrate
[21] = biological target: single beta-lactamase in K. pneumoniae cell extracts (Klebsiella pneumoniae, UniProt P0AD64, G234S); experiment: as above; conditions: K. pneumoniae Pit 100 extract, beta-lactamase pI 7.6; 100 μM substrate
[22] = biological target: single beta-lactamase in P. mirabilis cell extracts (Escherichia coli, UniProt P62593, E102K/R162S); experiment: as above; conditions: P. mirabilis Pit 85 extract, beta-lactamase pI 5.6; 100 μM substrate
[23] = system: K. pneumoniae; experiment: Agar dilution MIC, South African isolates; type: cell-based, Klebsiella pneumoniae; conditions: tzp with tazobactam 4 μg/ml
From the text: as §2

[24] = SHV-3 strain (1), Bush group 1 enzyme pI 8.3
[25] = SHV-3 strain (1), Bush group 2be enzyme pI 6.9
[26] = SHV-4 strains (29), Bush group 1 enzyme pI 8.3
[27] = SHV-4 strains (29), Bush group 2be enzyme pI 7.8
[28] = SHV-5 strain (1), Bush group 1 enzyme pI 8.3
[29] = SHV-5 strain (1), Bush group 2Be enzyme pI 8.0
[30] = Ec1, beta-lactamase pI 5.4 (TEM-1)
[31] = Ec2, beta-lactamase pI 5.4 (TEM-1)
[32] = Ec1, beta-lactamase pI 5.6 (TEM-10 or 26)
[33] = Ec2, beta-lactamase pI 7.6 (SHV-2 or 8)
[34] = Kpn1, beta-lactamase pI 5.6 (TEM-10 or 26)
[35] = Kpn2, beta-lactamase pI 7.6 (SHV-2 or 8)
[36] = Kpn3, beta-lactamase pI 8.0 (AmpC)
[37] = Kpn2, beta-lactamase pI 5.4 (TEM-1)
[38] = Kpn3, beta-lactamase pI 5.4 (TEM-1)

Molecule | Zone Size [1] | susceptibility after transfer of plasmids encoding SHV beta-lactamase genes [3] | Zone Size [5] | Zone Size [6] | Inhibited by [7, 24] | Inhibited by [7, 25] | Inhibited by [7, 26] | Inhibited by [7, 27] | Inhibited by [7, 28] | Inhibited by [7, 29] | Inhibited by [8, 30] | Inhibited by [8, 31] | Inhibited by [9, 32] | Inhibited by [9, 33] | Inhibited by [10] | Inhibited by [11, 34] | Inhibited by [11, 35] | Inhibited by [11, 36] | Inhibited by [12] | Inhibited by [13, 37] | further results
trimethoprim/sulfamethoxazole | 8 mm | resistance | 6 mm | 31 mm | – | – | – | – | – | – | – | – | – | – | – | – | – | – | – | – | MicroScan susceptibility result [2]: Resistant; MicroScan MIC ([2]; MicroScan test, unit not given): > 2/38; Disk diffusion susceptibility [4]: resistant
O=C(O)[C@H]1/C(=C/CO)O[C@@H]2CC(=O)N21 [clavulanate] | – | – | – | – | no | yes | no | yes | no | yes | Yes | Yes | Yes | Yes | No | Yes | Yes | No | Yes | Yes | Inhibited by [13, 38]: Yes
C[C@H]1[C@H](NC(=O)/C(=N\OC(C)(C)C(=O)O)c2csc(N)n2)C(=O)N1S(=O)(=O)O [aztreonam] | 7 mm | decreased susceptibility | 8 mm | 33 mm | – | – | – | – | – | – | – | – | – | – | – | – | – | – | – | – | MIC [14]: > 64 µg/mL; MIC range [15]: 0.5 to 2 µg/mL; MIC range ([16]; resistance phenotype Ec1, 3 strains): 16 µg/mL; MIC range ([16]; resistance phenotype Ec2, 1 strain): 2 µg/mL; three dimensional test [17]: positive; Hydrolysis [18]: 0.4 nmol of substrate hydrolyzed/m; Hydrolysis [19]: 0.9 nmol of substrate hydrolyzed/m; Hydrolysis [20]: 0.6 nmol of substrate hydrolyzed/m; Hydrolysis [21]: 0.9 nmol of substrate hydrolyzed/m; Hydrolysis [22]: 0.5 nmol of substrate hydrolyzed/m; MIC range ([23]; resistance phenotype Kpn1, 8 strains): 16 to 64 µg/mL; MIC range ([23]; resistance phenotype Kpn2, 28 strains): 1 to 128 µg/mL; MIC range ([23]; resistance phenotype Kpn3 (K. pneumoniae Pit 68), 1 strain, listed as atm): 2 µg/mL
Cc1onc(-c2ccccc2Cl)c1C(=O)N[C@@H]1C(=O)N2[C@@H]1SC(C)(C)[C@@H]2C(=O)O [cloxacillin] | – | – | – | – | yes | no | yes | no | yes | no | No | No | No | No | Yes | No | No | Yes | No | No | Inhibited by [13, 38]: No
O=C(Cc1cccs1)N[C@@H]1C(=O)N2C(C(=O)O)=C(/C=C/c3ccc([N+](=O)[O-])cc3[N+](=O)[O-])CS[C@H]12 [Nitrocefin] | – | – | – | – | – | – | – | – | – | – | – | – | – | – | – | – | – | – | – | – | Hydrolysis [18]: 275 nmol of substrate hydrolyzed/m; Hydrolysis [19]: 136 nmol of substrate hydrolyzed/m; Hydrolysis [20]: 114 nmol of substrate hydrolyzed/m; Hydrolysis [21]: 159 nmol of substrate hydrolyzed/m; Hydrolysis [22]: 138 nmol of substrate hydrolyzed/m
